Where a name gives a salt, the structure may show the parent alone. Marks after values point to notes of the source that are not given here.
Tests used:
[1] = system: evoked electrographic activity; conditions: limited number of cats; John, et al, 1973; cited from earlier work
rabbit cortex = experiment: Quantitative EEG, rabbit cortex, intravenous administration; type: in vivo, rabbits; conditions: for group percent change in electrical energy from pre-drug control, Δ band / mean change ± S.E. in electrical energy from pre-drug control, Δ band: Δ = 0.5-3.5 Hz; for group percent change in electrical energy from pre-drug control, α band / mean change ± S.E. in electrical energy from pre-drug control, α band: α= 7-13 Hz; for group percent change in electrical energy from pre-drug control, β band / mean change ± S.E. in electrical energy from pre-drug control, β band: β= 13-25 Hz; for group percent change in electrical energy from pre-drug control, γ band / mean change ± S.E. in electrical energy from pre-drug control, γ band: γ= 25-40 Hz; for group percent change in electrical energy from pre-drug control, θ band / mean change ± S.E. in electrical energy from pre-drug control, θ band: θ= 3.5-7.0 Hz
Procedure, shortened: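 Restrained rabbits with cortical leads had EEG split into Δ, ϑ, α, β and γ bands and integrated over 1 h from the moment of i.v. injection, in saline, dosed as free base. Counts were compared with each animal's own pretreatment control by paired t-test (p≦0.05). Doses were reduced geometrically to a no-effect level.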

[2] = system: fronto-occipital cortex of the cat; experiment: Quantitative EEG, fronto-occipital cat cortex, subcutaneous administration; type: in vivo, cats; conditions: for EEG profile: cat cortex; for group percent change in electrical energy from pre-drug control, Δ band / mean change ± S.E. in electrical energy from pre-drug control, Δ band / group percent change in electrical energy from pre-drug control, α band / mean change ± S.E. in electrical energy from pre-drug control, α band / group percent change in electrical energy from pre-drug control, β band / mean change ± S.E. in electrical energy from pre-drug control, β band / group percent change in electrical energy from pre-drug control, γ band / mean change ± S.E. in electrical energy from pre-drug control, γ band / group percent change in electrical energy from pre-drug control, θ band / mean change ± S.E. in electrical energy from pre-drug control, θ band: fronto-occipital cat cortex; for group percent change in electrical energy from pre-drug control, α band / mean change ± S.E. in electrical energy from pre-drug control, α band: α= 7-13 Hz; for group percent change in electrical energy from pre-drug control, β band / mean change ± S.E. in electrical energy from pre-drug control, β band: β= 13-25 Hz; for group percent change in electrical energy from pre-drug control, γ band / mean change ± S.E. in electrical energy from pre-drug control, γ band: γ= 25-40 Hz; for group percent change in electrical energy from pre-drug control, θ band / mean change ± S.E. in electrical energy from pre-drug control, θ band: θ= 3.5-7.0 Hz
Procedure, shortened: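 Adult female mongrel cats (n=6 per group) with implanted electrodes were recorded while held in restraining bags, with EEG filtered into Δ, ϑ, α, β and γ bands and integrated as energy counts. Drugs were given subcutaneously in saline, with doses calculated as free base, and recording started 30 min post-injection. Changes from each animal's pre-treatment control were tested by paired Student t-test (P≦0.05).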

[3] = system: attention deficit hyperactivity disorder; experiment: Treatment of children with attention deficit hyperactivity disorder (Examples 1 and 2); type: in vivo, child
Procedure: Buspirone is administered to a person, who has been identified by a clinician as having the symptoms associated with attention deficit hyperactivity disorder. During treatment, the child received […] of buspirone twice a day.
Buspirone is administered to a person, who has been identified by a clinician as having the symptoms associated with attention deficit hyperactivity disorder. During the treatment, the child received […] of buspirone three times a day.

[4] = rabbit cortex, 0.25 mg/kg free base i.v.
[5] = rabbit cortex, 0.50 mg/kg free base i.v.
[6] = Δ = 0.05-35 Hz, 0.125 mg/kg free base s.c.
[7] = Δ = 0.05-35 Hz, 0.5 mg/kg free base s.c.
[8] = Δ = 0.5-3.5 Hz, 0.25 mg/kg free base s.c.
[9] = Δ = 0.5-3.5 Hz, 2.0 mg/kg free base s.c.
[10] = Δ = 0.5-3.5 Hz, 8.0 mg/kg free base s.c.
[11] = child with symptoms of attention deficit hyperactivity disorder, 5 mg/kg twice a day

SMILES: O=C1CC2(CCCC2)CC(=O)N1CCCCN1CCN(c2ncccn2)CC1 [Buspirone HCl, buspirone hydrochloride]
- effect on evoked electrographic activity [1]: possessed properties similar to both chlorpromazine and methamphetamine
- minimal effective dose (rabbit cortex; Oryctolagus cuniculus, iv, rabbit cortex EEG, dose of free base, read-out: the minimum dose required to produce the EEG profile characteristic of that particular drug): 0.5 mg/kg
- the no-effect dose (rabbit cortex; rabbit cortex EEG, dose of free base): 0.25† mg/kg, i.v.
- EEG profile (rabbit cortex; rabbit cortex, i.v.): shares a component of stimulation similar to that of methylphenidate and dextroamphetamine
- group percent change in electrical energy from pre-drug control, Δ band (rabbit cortex; [4]): 0%
- mean change ± S.E. in electrical energy from pre-drug control, Δ band (rabbit cortex; [4]): -1 ± 18 instrument counts
- group percent change in electrical energy from pre-drug control, Δ band (rabbit cortex; [5]): -34%
- mean change ± S.E. in electrical energy from pre-drug control, Δ band (rabbit cortex; [5]): -114 ± 25 instrument counts
- group percent change in electrical energy from pre-drug control, α band (rabbit cortex; [4]): -1%
- mean change ± S.E. in electrical energy from pre-drug control, α band (rabbit cortex; [4]): -2 ± 12 instrument counts
- group percent change in electrical energy from pre-drug control, α band (rabbit cortex; [5]): -32%
- mean change ± S.E. in electrical energy from pre-drug control, α band (rabbit cortex; [5]): -70 ± 13 instrument counts
- group percent change in electrical energy from pre-drug control, β band (rabbit cortex; [4]): -4%
- mean change ± S.E. in electrical energy from pre-drug control, β band (rabbit cortex; [4]): -5 ± 7 instrument counts
- group percent change in electrical energy from pre-drug control, β band (rabbit cortex; [5]): -28%
- mean change ± S.E. in electrical energy from pre-drug control, β band (rabbit cortex; [5]): -47 ± 10 instrument counts
- group percent change in electrical energy from pre-drug control, γ band (rabbit cortex; [4]): -5%
- mean change ± S.E. in electrical energy from pre-drug control, γ band (rabbit cortex; [4]): -5 ± 2 instrument counts
- group percent change in electrical energy from pre-drug control, γ band (rabbit cortex; [5]): -14%
- mean change ± S.E. in electrical energy from pre-drug control, γ band (rabbit cortex; [5]): -17 ± 3 instrument counts
- group percent change in electrical energy from pre-drug control, θ band (rabbit cortex; [4]): -5%
- mean change ± S.E. in electrical energy from pre-drug control, θ band (rabbit cortex; [4]): -10 ± 14 instrument counts
- group percent change in electrical energy from pre-drug control, θ band (rabbit cortex; [5]): -35%
- mean change ± S.E. in electrical energy from pre-drug control, θ band (rabbit cortex; [5]): -86 ± 11 instrument counts
- minimal effective dose ([2]; Felis catus, sc, fronto-occipital cat cortex EEG, dose of free base, read-out: the minimum dose required to produce the EEG profile characteristic of that particular drug): 0.25 mg/kg
- doses required to produce the combined antipsychotic-stimulant EEG profile ([2]; cat cortex EEG, s.c.): at least twice that of thioridazine and chlorpromazine
- EEG profile ([2]; 8.0 mg/kg dose, s.c.): causes an increase in electrical "power" in the lowest frequency bands
- EEG profile ([2]; higher dose (2.0 and 8.0 mg/kg, s.c.)): elicit a profile which deviates from that produced by the stimulants
- the no-effect dose ([2]; fronto-occipital cat cortex EEG, dose of free base): 0.125† mg/kg, s.c.
- group percent change in electrical energy from pre-drug control, Δ band [2, 6]: -21%
- mean change ± S.E. in electrical energy from pre-drug control, Δ band [2, 6]: -46 ± 27 instrument counts
- group percent change in electrical energy from pre-drug control, Δ band [2, 7]: -14%
- mean change ± S.E. in electrical energy from pre-drug control, Δ band [2, 7]: -31 ± 18 instrument counts
- group percent change in electrical energy from pre-drug control, Δ band [2, 8]: +5%
- mean change ± S.E. in electrical energy from pre-drug control, Δ band [2, 8]: +10 ± 8 instrument counts
- group percent change in electrical energy from pre-drug control, Δ band [2, 9]: +15%
- mean change ± S.E. in electrical energy from pre-drug control, Δ band [2, 9]: +30 ± 22 instrument counts
- group percent change in electrical energy from pre-drug control, Δ band [2, 10]: +55%
- mean change ± S.E. in electrical energy from pre-drug control, Δ band [2, 10]: +89 ± 29 instrument counts
- group percent change in electrical energy from pre-drug control, α band ([2]; 0.125 mg/kg free base s.c.): -18%
- mean change ± S.E. in electrical energy from pre-drug control, α band ([2]; 0.125 mg/kg free base s.c.): -23 ± 12 instrument counts
- group percent change in electrical energy from pre-drug control, α band ([2]; 0.25 mg/kg free base s.c.): -26%
- mean change ± S.E. in electrical energy from pre-drug control, α band ([2]; 0.25 mg/kg free base s.c.): -35 ± 6 instrument counts
- group percent change in electrical energy from pre-drug control, α band ([2]; 0.5 mg/kg free base s.c.): -39%
- mean change ± S.E. in electrical energy from pre-drug control, α band ([2]; 0.5 mg/kg free base s.c.): -47 ± 12 instrument counts
- group percent change in electrical energy from pre-drug control, α band ([2]; 2.0 mg/kg free base s.c.): -15%
- mean change ± S.E. in electrical energy from pre-drug control, α band ([2]; 2.0 mg/kg free base s.c.): -20 ± 14 instrument counts
- group percent change in electrical energy from pre-drug control, α band ([2]; 8.0 mg/kg free base s.c.): -6%
- mean change ± S.E. in electrical energy from pre-drug control, α band ([2]; 8.0 mg/kg free base s.c.): -5 ± 14 instrument counts
- group percent change in electrical energy from pre-drug control, β band ([2]; 0.125 mg/kg free base s.c.): -6%
- mean change ± S.E. in electrical energy from pre-drug control, β band ([2]; 0.125 mg/kg free base s.c.): -6 ± 4 instrument counts
- group percent change in electrical energy from pre-drug control, β band ([2]; 0.25 mg/kg free base s.c.): -17%
- mean change ± S.E. in electrical energy from pre-drug control, β band ([2]; 0.25 mg/kg free base s.c.): -24 ± 5 instrument counts
- group percent change in electrical energy from pre-drug control, β band ([2]; 0.5 mg/kg free base s.c.): -23%
- mean change ± S.E. in electrical energy from pre-drug control, β band ([2]; 0.5 mg/kg free base s.c.): -24 ± 3 instrument counts
- group percent change in electrical energy from pre-drug control, β band ([2]; 2.0 mg/kg free base s.c.): -24%
- mean change ± S.E. in electrical energy from pre-drug control, β band ([2]; 2.0 mg/kg free base s.c.): -33 ± 8 instrument counts
- group percent change in electrical energy from pre-drug control, β band ([2]; 8.0 mg/kg free base s.c.): -21%
- mean change ± S.E. in electrical energy from pre-drug control, β band ([2]; 8.0 mg/kg free base s.c.): -22 ± 7 instrument counts
- group percent change in electrical energy from pre-drug control, γ band ([2]; 0.125 mg/kg free base s.c.): +5%
- mean change ± S.E. in electrical energy from pre-drug control, γ band ([2]; 0.125 mg/kg free base s.c.): +4 ± 3 instrument counts
- group percent change in electrical energy from pre-drug control, γ band ([2]; 0.25 mg/kg free base s.c.): 0%
- mean change ± S.E. in electrical energy from pre-drug control, γ band ([2]; 0.25 mg/kg free base s.c.): -1 ± 3 instrument counts
- group percent change in electrical energy from pre-drug control, γ band ([2]; 0.5 mg/kg free base s.c.): -5%
- mean change ± S.E. in electrical energy from pre-drug control, γ band ([2]; 0.5 mg/kg free base s.c.): -4 ± 4 instrument counts
- group percent change in electrical energy from pre-drug control, γ band ([2]; 2.0 mg/kg free base s.c.): -9%
- mean change ± S.E. in electrical energy from pre-drug control, γ band ([2]; 2.0 mg/kg free base s.c.): -10 ± 3 instrument counts
- group percent change in electrical energy from pre-drug control, γ band ([2]; 8.0 mg/kg free base s.c.): -3%
- mean change ± S.E. in electrical energy from pre-drug control, γ band ([2]; 8.0 mg/kg free base s.c.): -2 ± 3 instrument counts
- group percent change in electrical energy from pre-drug control, θ band ([2]; 0.125 mg/kg free base s.c.): -22%
- mean change ± S.E. in electrical energy from pre-drug control, θ band ([2]; 0.125 mg/kg free base s.c.): -32 ± 16 instrument counts
- group percent change in electrical energy from pre-drug control, θ band ([2]; 0.25 mg/kg free base s.c.): -16%
- mean change ± S.E. in electrical energy from pre-drug control, θ band ([2]; 0.25 mg/kg free base s.c.): -21 ± 6 instrument counts
- group percent change in electrical energy from pre-drug control, θ band ([2]; 0.5 mg/kg free base s.c.): -32%
- mean change ± S.E. in electrical energy from pre-drug control, θ band ([2]; 0.5 mg/kg free base s.c.): -46 ± 14 instrument counts
- group percent change in electrical energy from pre-drug control, θ band ([2]; 2.0 mg/kg free base s.c.): +13%
- mean change ± S.E. in electrical energy from pre-drug control, θ band ([2]; 2.0 mg/kg free base s.c.): +17 ± 15 instrument counts
- group percent change in electrical energy from pre-drug control, θ band ([2]; 8.0 mg/kg free base s.c.): +34%
- mean change ± S.E. in electrical energy from pre-drug control, θ band ([2]; 8.0 mg/kg free base s.c.): +35 ± 15 instrument counts
- clinical response during and after treatment [3, 11]: spectacular and very fast improvement
- sleep disturbance [3, 11]: no sleep disturbance
- clinical response during and after treatment ([3]; with symptoms of attention deficit hyperactivity disorder, 5 mg/kg three times a day): excellent response
